Data taken from patent US20210261642A1, “SOLUBILITY OF GLP-1 PEPTIDE” (Novo Nordisk A/S, priority 2017, published 2021).

Experiment: Assay (I): Determination of Solubility (96-well plate, pH 3.0-11.0, organic solvent 0-70% w/w, UV absorption at 280 nm)
Assay type: physicochemical
Settings: Method 1
Procedure: Assay (I): Determination of Solubility
96-Well Plate Preparation
96-well plates containing target peptide in a solid form were prepared in one of two ways:
Method 1 (evaporation): Addition of 100 μl stock solution of said peptide at a concentration of 4-6 mg/ml to each well of a 96-well half area plate (150 μl well size). Subsequently the solvent was evaporated by applying a vacuum until the solvent was completely removed.
Method 2 (precipitation): Addition of a certain volume of a stock solution of said peptide containing to each well of a 96-well half area plate followed by the addition of a certain volume of concentrated phosphoric acid to obtain a pH of 4.6 followed by addition of a certain volume of ethanol resulting in a final ethanol concentration of 20% v/v. Subsequently the plate was stored at 4° C. for 1 h and then centrifuged at 4,000 rpm for 20 min. Finally the supernatant was removed. The concentration of the stock solution was chosen in a way that the final amount of peptide after supernatant removal was >0.4 mg per well.
In both cases the stock solution was prepared by adding de-ionized water to a certain amount of powder of said peptide followed by a stepwise addition of small amounts of a concentrated sodium hydroxide solution until said peptide was completely in solution.
To determine solubility of a target peptide at different pH and organic solvent concentrations, two different buffer systems were used in independent experiments to cover the whole range from pH 3.0 to pH 11.0. Buffer system 1 covers pH 3.0-7.5 and buffer system 2 covers pH 7.5-11.0. For each buffer system 96 different solvent compositions were premixed in the following way: • 1. A low pH buffer (adjusted to either pH 3.0 or pH 7.5) and a high pH buffer (adjusted to either pH 7.5 or pH 11.0) were mixed at 8 different ratios to obtain values between pH 3.0 and pH 7.5 or pH 7.5 and pH 11.0, respectively. The total volume after mixing was 300 μl. • 2. 12 different amounts of organic solvent were then added to these buffers to obtain organic solvent (e.g. ethanol) concentrations between 0 and 70% w/w. • 3. Water was then added to obtain a total weight of 1.0 g of solvent in each well.
After preparing the 96 different solvent systems, 100 μl of each system was transferred to the 96-well plate containing the solid form of the target peptide (prepared as described in the section “96-well plate preparation”). The plate was then stored at a given temperature (between 5° C. and 70° C.) for a given time on a rotating shaker set to 400 rpm. At regular time intervals the plate was centrifuged (4,000 rpm for 10 min) and a 10 μl sample was taken from each well. The samples were then analysed by UV absorption at 280 nm for peptide quantification. Peptide concentration results are given as UV absorption at 280 nm of the sample subtracted UV absorption at 280 nm of a well comprising 10 μl water.
The buffers used were as follows: • Buffer system 1 (for the pH range from pH 3.0-7.5)
• Buffer system 2 (for the pH ranae from pH 7.5-11.0)
Solubility of liraglutide was determined using Assay (I) described herein. Liraglutide was prepared using Method 1 (evaporation) or Method 2 (precipitation) as described in subsection “96-well plate preparation”.

Structure (SMILES): CCCCCCCCCCCCCCCC(=O)N[C@@H](CCC(=O)NCCCC[C@H](NC(=O)[C@H](C)NC(=O)[C@H](C)NC(=O)[C@H](CCC(N)=O)NC(=O)CNC(=O)[C@H](CCC(=O)O)NC(=O)[C@H](CC(C)C)NC(=O)[C@H](Cc1ccc(O)cc1)NC(=O)[C@H](CO)NC(=O)[C@H](CO)NC(=O)[C@@H](NC(=O)[C@H](CC(=O)O)NC(=O)[C@H](CO)NC(=O)[C@@H](NC(=O)[C@H](Cc1ccccc1)NC(=O)[C@@H](NC(=O)CNC(=O)[C@H](CCC(=O)O)NC(=O)[C@H](C)NC(=O)[C@@H](N)Cc1cnc[nH]1)[C@@H](C)O)[C@@H](C)O)C(C)C)C(=O)N[C@@H](CCC(=O)O)C(=O)N[C@@H](Cc1ccccc1)C(=O)N[C@H](C(=O)N[C@@H](C)C(=O)N[C@@H](Cc1c[nH]c2ccccc12)C(=O)N[C@@H](CC(C)C)C(=O)N[C@H](C(=O)N[C@@H](CCCNC(=N)N)C(=O)NCC(=O)N[C@@H](CCCNC(=N)N)C(=O)NCC(=O)O)C(C)C)[C@@H](C)CC)C(=O)O [liraglutide, Arg34,Lys26-(N-epsilon-(gamma-L-glutamyl(N-alfa-hexadecanoyl)))-GLP-1(7-37)]
- Peptide concentration after 5 min (MeCN 0.0% w/w, pH 3.0, RT): 0.1 mg/mL
- Peptide concentration after 180 min (MeCN 0.0% w/w, pH 3.0, RT): 0.1 mg/mL
- Peptide concentration after 5 min (MeCN 0.0% w/w, pH 3.6, RT): 0.1 mg/mL
- Peptide concentration after 180 min (MeCN 0.0% w/w, pH 3.6, RT): 0.1 mg/mL
- Peptide concentration after 5 min (MeCN 0.0% w/w, pH 4.3, 5° C.): 0.1 mg/mL
- Peptide concentration after 180 min (MeCN 0.0% w/w, pH 4.3, 5° C.): 0.1 mg/mL
- Peptide concentration after 5 min (MeCN 0.0% w/w, pH 4.3, RT): 0.1 mg/mL
- Peptide concentration after 180 min (MeCN 0.0% w/w, pH 4.3, RT): 0.1 mg/mL
- Peptide concentration after 24 h (MeCN 0.0% w/w, pH 4.3, RT): 0.0 mg/mL
- Peptide concentration after 5 min (MeCN 0.0% w/w, pH 4.9, 5° C.): 0.2 mg/mL
- Peptide concentration after 180 min (MeCN 0.0% w/w, pH 4.9, 5° C.): 0.1 mg/mL
- Peptide concentration after 5 min (MeCN 0.0% w/w, pH 5.6, 5° C.): 0.1 mg/mL
- Peptide concentration after 180 min (MeCN 0.0% w/w, pH 5.6, 5° C.): 0.1 mg/mL
- Peptide concentration after 24 h (MeCN 0.0% w/w, pH 5.6, 5° C.): 0.1 mg/mL
- Peptide concentration after 24 h (MeCN 0.0% w/w, pH 5.6, RT): 0.0 mg/mL
- Peptide concentration after 5 min (MeCN 0.0% w/w, pH 6.2, 5° C.): 0.1 mg/mL
- Peptide concentration after 180 min (MeCN 0.0% w/w, pH 6.2, 5° C.): 0.1 mg/mL
- Peptide concentration after 5 min (MeCN 0.0% w/w, pH 6.9, 5° C.): 0.4 mg/mL
- Peptide concentration after 180 min (MeCN 0.0% w/w, pH 6.9, 5° C.): 2.0 mg/mL
- Peptide concentration after 24 h (MeCN 0.0% w/w, pH 6.9, 5° C.): >4.0 mg/mL
- Peptide concentration after 24 h (MeCN 0.0% w/w, pH 6.9, RT): >4.0 mg/mL
- Peptide concentration after 5 min (MeCN 0.0% w/w, pH 7.5, 5° C.): 0.6 mg/mL
- Peptide concentration after 180 min (MeCN 0.0% w/w, pH 7.5, 5° C.): 2.6 mg/mL
- Peptide concentration after 24 h (MeCN 0.0% w/w, pH 7.5, 5° C.): >4.0 mg/mL
- Peptide concentration after 24 h (MeCN 0.0% w/w, pH 7.5, RT): >4.0 mg/mL
- Peptide concentration after 5 min (MeCN 0.0% w/w, pH 8.0, 5° C.): 0.5 mg/mL
- Peptide concentration after 180 min (MeCN 0.0% w/w, pH 8.0, 5° C.): 2.1 mg/mL
- Peptide concentration after 24 h (MeCN 0.0% w/w, pH 8.0, 5° C.): >4.0 mg/mL
- Peptide concentration after 5 min (MeCN 0.0% w/w, pH 8.5, 5° C.): 0.3 mg/mL
- Peptide concentration after 180 min (MeCN 0.0% w/w, pH 8.5, 5° C.): 2.9 mg/mL
- Peptide concentration after 24 h (MeCN 0.0% w/w, pH 8.5, 5° C.): >4.0 mg/mL
- Peptide concentration after 5 min (MeCN 0.0% w/w, pH 9.0, 5° C.): 0.3 mg/mL
- Peptide concentration after 180 min (MeCN 0.0% w/w, pH 9.0, 5° C.): 2.8 mg/mL
- Peptide concentration after 24 h (MeCN 0.0% w/w, pH 9.0, 5° C.): >4.0 mg/mL
- Peptide concentration after 5 min (MeCN 0.0% w/w, pH 9.5, 5° C.): 0.4 mg/mL
- Peptide concentration after 180 min (MeCN 0.0% w/w, pH 9.5, 5° C.): 2.6 mg/mL
- Peptide concentration after 24 h (MeCN 0.0% w/w, pH 9.5, 5° C.): >4.0 mg/mL
- Peptide concentration after 5 min (MeCN 0.0% w/w, pH 10.0, 5° C.): 0.4 mg/mL
- Peptide concentration after 180 min (MeCN 0.0% w/w, pH 10.0, 5° C.): 3.1 mg/mL
- Peptide concentration after 24 h (MeCN 0.0% w/w, pH 10.0, 5° C.): >4.0 mg/mL
- Peptide concentration after 5 min (MeCN 0.0% w/w, pH 10.5, 5° C.): 0.5 mg/mL
- Peptide concentration after 180 min (MeCN 0.0% w/w, pH 10.5, 5° C.): 2.9 mg/mL
- Peptide concentration after 24 h (MeCN 0.0% w/w, pH 10.5, 5° C.): >4.0 mg/mL
- Peptide concentration after 5 min (MeCN 0.0% w/w, pH 11.0, 5° C.): 0.2 mg/mL
- Peptide concentration after 180 min (MeCN 0.0% w/w, pH 11.0, 5° C.): 1.6 mg/mL
- Peptide concentration after 24 h (MeCN 0.0% w/w, pH 11.0, 5° C.): >4.0 mg/mL
- Peptide concentration after 5 min (MeCN 6.4% w/w, pH 3.0, 5° C.): 0.1 mg/mL
- Peptide concentration after 180 min (MeCN 6.4% w/w, pH 3.0, 5° C.): 0.2 mg/mL
- Peptide concentration after 24 h (MeCN 6.4% w/w, pH 3.0, 5° C.): 0.3 mg/mL
- Peptide concentration after 24 h (MeCN 6.4% w/w, pH 3.0, RT): 0.1 mg/mL
- Peptide concentration after 5 min (MeCN 6.4% w/w, pH 3.6, 5° C.): 0.1 mg/mL
